Reference: PMC9306950 (Clinical Pharmacology in Drug Development, 2022)
Like-named read-outs stand apart in the source and are kept apart here.

Tests used:
[1] = for increase of AUCinf / increase of Cmax: statin dosed concomitantly with roxadustat vs statin alone; for CL/F lower in the presence of roxadustat: concomitant roxadustat vs statin alone
clinical = conditions: human, in vivo; for AUC(0-inf): AUCinf
[2] = for AUC(0-inf) / Cmax / half-life / Tmax / AUC(0-t): human, in vivo; for AUC(0-inf): AUCinf; for AUC(0-t): AUClast
[3] = Safety: treatment-emergent adverse events in study CL-0537; format: in vivo, healthy subjects; conditions: for TEAE headache, subjects / TEAE nasopharyngitis, subjects: CL-0537
[4] = Safety: treatment-emergent adverse events in study CL-0541; format: in vivo, healthy subjects
[5] = statin + roxadustat 200 mg (steady state), concomitant, plasma
[6] = statin alone, single oral dose, plasma
[7] = GLS mean for statin alone, statin alone
[8] = po, mean (SD), statin alone, single oral dose, plasma
[9] = po, median (min-max), statin alone, single oral dose, plasma
[10] = 40 mg, mean (SD), simvastatin 40 mg alone, plasma
[11] = mean (SD), simvastatin administered 2 hours before roxadustat, plasma
[12] = mean (SD), simvastatin administered 4 hours after roxadustat, plasma
[13] = mean (SD), simvastatin administered 10 hours after roxadustat, plasma
[14] = median (min-max), simvastatin administered 2 hours before roxadustat, plasma
[15] = median (min-max), simvastatin administered 4 hours after roxadustat, plasma
[16] = median (min-max), simvastatin administered 10 hours after roxadustat, plasma
[17] = simvastatin administered 2 hours before roxadustat
[18] = simvastatin administered 4 hours after roxadustat
[19] = simvastatin administered 10 hours after roxadustat
[20] = statin + roxadustat / statin alone

SMILES: CCC(C)(C)C(=O)O[C@H]1C[C@@H](C)C=C2C=C[C@H](C)[C@H](CC[C@@H](O)C[C@@H](O)CC(=O)O)[C@H]21 [Simvastatin acid]
- tlag, mean (SD) [1, 5]: 0.29 (0.35) h
- tlag, median (min-max) [1, 5]: 0 (0–1.02) h
- tlag, mean (SD) [1, 6]: 0.47 (0.31) h
- tlag, median (min-max) [1, 6]: 0.50 (0–1.00) h
- increase of AUCinf [1]: 1.85 fold
- increase of Cmax [1]: 2.76 fold
- AUC(0-inf) (clinical; [7]): 24.6 ng·h/mL
- Cmax (clinical; [7]): 1.86 ng/mL
- Cmax (clinical; [8]): 2.17 ng/mL
- Cmax (clinical; [9]): 2.06 ng/mL
- half-life (clinical; po, t1/2, mean (SD)): 6.28 h
- half-life (clinical; po, t1/2, median (min-max)): 5.78 h
- Tmax (clinical; [8]): 5.7 h
- Tmax (clinical; [9]): 4.02 h
- half-life (clinical; t1/2, mean (SD)): 5.98 h
- half-life (clinical; t1/2, median (min-max)): 5.27 h
- AUC(0-inf) [2, 10]: 24.3 ng·h/mL
- AUC(0-inf) ([2]; 40 mg, median (min-max), simvastatin 40 mg alone, plasma): 21.2 ng·h/mL
- Cmax [2, 10]: 2.12 ng/mL
- half-life ([2]; 40 mg, t1/2, mean (SD), simvastatin 40 mg alone, plasma): 7 h
- half-life ([2]; 40 mg, t1/2, median (min-max), simvastatin 40 mg alone, plasma): 6.36 h
- Tmax [2, 10]: 5.38 h
- AUC(0-inf) ([2]; GLS mean for simvastatin alone, simvastatin alone): 21 ng·h/mL
- AUC(0-inf) [2, 11]: 48.7 ng·h/mL
- AUC(0-inf) [2, 12]: 84.7 ng·h/mL
- AUC(0-inf) [2, 13]: 59.4 ng·h/mL
- AUC(0-inf) [2, 14]: 41 ng·h/mL
- AUC(0-inf) [2, 15]: 70.3 ng·h/mL
- AUC(0-inf) [2, 16]: 50.5 ng·h/mL
- AUC(0-t) [2, 11]: 44.7 ng·h/mL
- AUC(0-t) [2, 12]: 82.8 ng·h/mL
- AUC(0-t) [2, 13]: 57.4 ng·h/mL
- AUC(0-t) [2, 14]: 38.2 ng·h/mL
- AUC(0-t) [2, 15]: 68.9 ng·h/mL
- AUC(0-t) [2, 16]: 49.8 ng·h/mL
- Cmax [2, 11]: 4.99 ng/mL
- Cmax [2, 12]: 12.8 ng/mL
- Cmax [2, 13]: 7.13 ng/mL
- Cmax [2, 14]: 4.5 ng/mL
- Cmax [2, 15]: 11.6 ng/mL
- Cmax [2, 16]: 6.1 ng/mL
- half-life ([2]; t1/2, mean (SD), simvastatin administered 2 hours before roxadustat, plasma): 4.6 h
- half-life ([2]; t1/2, mean (SD), simvastatin administered 4 hours after roxadustat, plasma): 3.75 h
- half-life ([2]; t1/2, mean (SD), simvastatin administered 10 hours after roxadustat, plasma): 4.16 h
- half-life ([2]; t1/2, median (min-max), simvastatin administered 2 hours before roxadustat, plasma): 4.27 h
- half-life ([2]; t1/2, median (min-max), simvastatin administered 4 hours after roxadustat, plasma): 3.45 h
- Tmax [2, 11]: 5.55 h
- Tmax [2, 12]: 4.01 h
- Tmax [2, 13]: 4.4 h
- Tmax [2, 14]: 6 h
- Tmax [2, 16]: 4.01 h
- AUClast, mean (SD) ([2]; simvastatin 40 mg alone, plasma): 22.17 (11.98) ng • h/mL
- tmax, median (min-max) ([2]; simvastatin administered 4 hours after roxadustat, plasma): 4.00 (2.02–6.00) h

SMILES: CCC(C)(C)C(=O)O[C@H]1C[C@@H](C)C=C2C=C[C@H](C)[C@H](CC[C@@H]3C[C@@H](O)CC(=O)O3)[C@H]21 [Simvastatin]
- TEAE headache, subjects [3]: 0.0%
- TEAE nasopharyngitis, subjects [3]: 0.0%
- TEAE headache, subjects [4, 17]: 16.7%
- TEAE incidence: Overall [4, 17]: 9 (37.5%) n (%)
- total number of TEAEs [4, 17]: 12
- TEAE headache, subjects [4, 18]: 4.2%
- TEAE incidence: Overall [4, 18]: 6 (25.0%) n (%)
- number of TEAEs of dizziness possibly related to the study drug [4, 18]: 1
- subjects with TEAE of dizziness possibly related to the study drug [4, 18]: 1 (4.2%) n (%)
- total number of TEAEs [4, 18]: 8
- TEAE headache, subjects [4, 19]: 8.3%
- TEAE incidence: Overall [4, 19]: 4 (16.7%) n (%)
- number of TEAEs of dizziness possibly related to the study drug [4, 19]: 2
- subjects with TEAE of dizziness possibly related to the study drug [4, 19]: 1 (4.2%) n (%)
- total number of TEAEs [4, 19]: 9
- TEAE headache, subjects ([4]; simvastatin administered alone): 8.3%
- TEAE incidence: Overall ([4]; simvastatin alone): 5 (20.8%) n (%)
- total number of TEAEs ([4]; simvastatin alone): 6
- CL/F lower in the presence of roxadustat [1]: 40%
- increase of Cmax [1]: 1.87 fold
- lower mean CL/F ([2]; simvastatin 2 hours before roxadustat): 42%
- lower mean CL/F ([2]; simvastatin 4 hours after roxadustat): 51%
- lower mean CL/F ([2]; simvastatin 10 hours after roxadustat): 46%

SMILES: CC(C)c1nc(N(C)S(C)(=O)=O)nc(-c2ccc(F)cc2)c1/C=C/[C@@H](O)C[C@@H](O)CC(=O)O [Rosuvastatin]
- TEAE headache, subjects [3]: 0.0%
- TEAE nasopharyngitis, subjects [3]: 0.0%
- number of TEAEs considered related to the study drug ([3]; investigator assessment): 2
- subjects with TEAEs considered related to the study drug ([3]; investigator assessment): 2 (7.1%) n (%)
- CL/F lower in the presence of roxadustat [1]: 66%
- AUCinf, GLS mean for statin alone ([1]; human, in vivo): 62 878 pg • h/mL
- AUCinf, mean (SD) ([1]; human, in vivo): 196 187 (95 367) pg • h/mL
- AUCinf, median (min-max) ([1]; human, in vivo): 177 873 (48 036–503 953) pg • h/mL
- AUClast, mean (SD) ([1]; human, in vivo): 192 156 (95 253) pg • h/mL
- AUClast, median (min-max) ([1]; human, in vivo): 173 565 (43 917–498 457) pg • h/mL
- Cmax, mean (SD) ([1]; human, in vivo): 22 980 (12 787) pg/mL
- Cmax, median (min-max) ([1]; human, in vivo): 19 811 (4059–58 463) pg/mL
- tlag, mean (SD) ([1]; human, in vivo): 0 (0.0) h
- tlag, median (min-max) ([1]; human, in vivo): 0 (0–0) h
- AUCinf, mean (SD) ([1]; human, in vivo, po): 67 613 (33 727) pg • h/mL
- AUCinf, median (min-max) ([1]; human, in vivo, po): 57 187 (21 336–165 242) pg • h/mL
- AUClast, mean (SD) ([1]; human, in vivo, po): 61 459 (34 796) pg • h/mL
- AUClast, median (min-max) ([1]; human, in vivo, po): 54 017 (0–159 223) pg • h/mL
- Cmax, mean (SD) ([1]; human, in vivo, po): 4939 (2991) pg/mL
- Cmax, median (min-max) ([1]; human, in vivo, po): 4062 (0–13 775) pg/mL
- tlag, mean (SD) ([1]; human, in vivo, po): 0 (0.0) h
- tlag, median (min-max) ([1]; human, in vivo, po): 0 (0–0) h
- CL/F, mean (SD) [1, 5]: 63.4 (35.8) L/h
- CL/F, median (min-max) [1, 5]: 56.22 (19.8–208) L/h
- AUCinf, GLS mean ratio (%) [1, 20]: 292.55%
- Cmax, GLS mean ratio (%) [1, 20]: 447.33%
- CL/F, mean (SD) [1, 6]: 185.3 (91.3) L/h
- CL/F, median (min-max) [1, 6]: 174.9 (60.5–469) L/h
- tmax, median (min-max) [1, 6]: 4.00 (3.00–6.02) h
- increase of AUCinf [1]: 2.93 fold
- increase of Cmax [1]: 4.47 fold
- AUC(0-inf) (clinical; GLS mean for roxadustat + statin): 184 ng·h/mL
- Cmax (clinical; GLS mean for statin alone): 4.65 ng/mL
- half-life (clinical; po, t1/2, mean (SD), statin alone, single oral dose, plasma): 15.5 h
- half-life (clinical; po, t1/2, median (min-max), statin alone, single oral dose, plasma): 15.2 h
- Tmax (clinical; [8]): 3.9 h
